ChEMBL document CHEMBL1201862, “PubChem BioAssay data set” (2004)
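The compound was tested at five concentrations on cells cultured in 96-well plates, with a 48-hour exposure period. Here, GI50 denotes the concentration required for 50% inhibition of growth.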 Activity calls are given as the source filed them. No stated cut-off is given here; in the data, active = GI50 up to about 1.1 µM and inactive = higher. Where a SMILES comes first, the peptide text is derived from it. The star is where a group is joined. Boc = CC(C)(C)OC(=O)*; OSu = O=C1CCC(=O)N1O*

Tests used:
Test in all cases: NCI-60 cell line screen, 48 h
BT-549 = test system: BT-549
T47D = test system: T47D
DLD-1 = test system: DLD-1
DMS-114 = test system: DMS-114
DMS-273 = test system: DMS-273
LXFL 529 = test system: LXFL 529
SNB-78 = test system: SNB-78

CCOc1ccncc1[N+](=O)[O-]
GI50 (BT-549): > 100 µM (inactive)
GI50 (T47D): > 100 µM (inactive)

N#CC(/C(=N/NC(=N)N)C(=O)Nc1ccccc1[N+](=O)[O-])c1nc(-c2ccc([N+](=O)[O-])cc2)cs1 (configuration not stated)
GI50 (DLD-1): > 100 µM (inactive)
GI50 (DMS-114): > 100 µM (inactive)
GI50 (DMS-273): > 100 µM (inactive)
GI50 (LXFL 529): > 100 µM (inactive)
GI50 (SNB-78): > 100 µM (inactive)

C[C@@H]1CC[C@@]2(OC1)O[C@H]1[C@@H](O)[C@H]3[C@@H]4CC[C@H]5C[C@@H](O[C@@H]6O[C@H](CO)[C@H](O[C@@H]7O[C@H](CO)C(O)[C@H](O[C@@H]8OC[C@@H](O)[C@H](O)[C@H]8O)[C@H]7O[C@@H]7O[C@H](CO)[C@H](O)[C@H](O[C@@H]8O[C@H](CO)[C@@H](O)[C@H](O)[C@H]8O)[C@H]7O)[C@H](O)[C@H]6O)[C@H](O)C[C@]5(C)[C@H]4CC[C@]3(C)[C@H]1[C@@H]2C (some centres not stated) [DIGITONIN]
GI50 (BT-549): 1.63 µM (inactive)
GI50 (T47D): 3 µM (inactive)

CCOC(=O)C(C(=O)OCC)=C1C=C(c2ccccc2)c2ccccc21
GI50 (DLD-1): 10.7 µM (inactive)
GI50 (DMS-114): 54.6 µM (inactive)
GI50 (DMS-273): 51.5 µM (inactive)
GI50 (LXFL 529): 53.2 µM (inactive)
GI50 (SNB-78): > 100 µM (inactive)

C=C(Cl)C(C)(Cl)CCC(Cl)C(C)C (configuration not stated)
GI50 (BT-549): > 100 µM (inactive)

CCCCCCCCCCCCCCCCCc1cccc(OCOCCOC)c1CO
GI50 (BT-549): > 100 µM (inactive)

CCCCOC(=O)C1CN2C=CC=NC2=NC1(C(F)(F)F)C(F)(F)F (configuration not stated)
GI50 (BT-549): > 100 µM (inactive)
GI50 (T47D): > 100 µM (inactive)

Oc1cc(-c2cccc3ccccc23)nc2ncccc12
GI50 (BT-549): 0.938 µM (active)

CC(C)CN1CN(c2ccccc2)C2(CCN(CC(C)(c3ccc(F)cc3)C3OCCO3)CC2)C1=O (configuration not stated)
GI50 (BT-549): 6.56 µM (inactive)
GI50 (T47D): 2.75 µM (inactive)

Cc1c2c(C#N)nccc2c(C)c2c1c1ccccc1n2Cc1ccccc1
GI50 (T47D): 63.5 µM (inactive)

CN(c1ccccc1)S(=O)(=O)c1ccccc1[N+](=O)[O-]
GI50 (BT-549): 75.2 µM (inactive)
GI50 (T47D): 62.5 µM (inactive)

O=S(=O)(O)c1c(/N=N/c2c(O)ccc3ccccc23)ccc2ccccc12
GI50 (BT-549): > 100 µM (inactive)
GI50 (T47D): > 100 µM (inactive)

CCOC(=O)C(NC(=O)c1ccccc1)(Nc1ccc(S(=O)(=O)Nc2cc(C)on2)cc1)C(F)(F)F (configuration not stated)
GI50 (BT-549): > 100 µM (inactive)
GI50 (T47D): > 100 µM (inactive)

CCC(=O)c1ccc2[nH]c3c(C)c4c(O)cc(C)nc4c(C)c3c2c1
GI50 (BT-549): > 100 µM (inactive)
GI50 (T47D): > 100 µM (inactive)

CS(=O)(=O)Nc1ccc(Nc2ccnc3ccc4[nH]ccc4c23)cc1
GI50 (BT-549): 19.7 µM (inactive)
GI50 (T47D): 3.77 µM (inactive)

CC(C)(C)OC(=O)NC(Cc1ccc(O)cc1)C(=O)NC(CCCCN)C(=O)NC(Cc1ccc(O)cc1)C(=O)NC(CCCCN)C(=O)ON1C(=O)CCC1=O (configuration not stated) (Boc-YKYK-OSu; configuration not given here)
GI50 (BT-549): > 100 µM (inactive)
GI50 (T47D): > 100 µM (inactive)

CN(C(=O)OC(C)(C)C)[C@H]1CCCC[C@H]1N1CCCC1
GI50 (BT-549): > 100 µM (inactive)
GI50 (T47D): > 100 µM (inactive)

[N-]=[N+]=CC(=O)OC(CCl)CCl
GI50 (BT-549): > 100 µM (inactive)

CC(C)C(NC(=O)C(Cc1ccccc1)NC(=O)[C@H]1CCC[C@H]1NC(=O)C(Cc1ccc(OC(C)(C)C)cc1)NC(=O)OC(C)(C)C)C(N)=O (some centres not stated)
GI50 (T47D): 20 µM (inactive)

O=C1C2CCCCC2C(=O)N1n1c(-c2ccccc2)n[nH]c1=O (configuration not stated)
GI50 (BT-549): > 100 µM (inactive)
GI50 (T47D): > 100 µM (inactive)

Clc1ccc(-c2nn3c(COc4ccc(OCc5nnc6sc(-c7ccc(Cl)cc7)nn56)c(Cl)c4)nnc3s2)cc1
GI50 (BT-549): 18.9 µM (inactive)
GI50 (T47D): 36.5 µM (inactive)

C/C(=N\NC(N)=O)C(CN(C)C)C(c1ccccc1)c1c(O)c2ccccc2oc1=O (configuration not stated)
GI50 (BT-549): > 100 µM (inactive)
GI50 (T47D): > 100 µM (inactive)

C[Si](C)(c1ccccc1)[C@H]1CCCC=C1CCNC1c2ccccc2CCc2ccccc21
GI50 (BT-549): > 100 µM (inactive)
GI50 (T47D): 35.9 µM (inactive)

Nc1onc2c1Cc1c(noc1N)-c1ccccc1-2
GI50 (BT-549): 17.5 µM (inactive)
GI50 (T47D): 27 µM (inactive)

CC1=NN(c2cccc(Cl)c2)C(=N/c2nc3ccccc3s2)/C1=C\c1ccc(Cl)cc1
GI50 (T47D): 33.6 µM (inactive)

Cc1nc(O)nc2nc3ccc(Cl)cc3c(NC(C)(CO)CO)c12
GI50 (BT-549): 62.8 µM (inactive)
GI50 (T47D): 17.6 µM (inactive)

CCOC(=O)CCc1cn2cc(Br)nc(OC)c2n1
GI50 (BT-549): > 100 µM (inactive)
GI50 (T47D): 46.3 µM (inactive)

c1c2c(cc3c1OCO3)-c1cc3ccc4c(c3c[n+]1CC2)OCO4 [COPTISINE CHLORIDE]
GI50 (BT-549): > 5.85 µM (inactive)
GI50 (T47D): 3.13 µM (inactive)

COc1ncc(C#CC(=O)c2ccccc2OC)c(OC)n1
GI50 (BT-549): 1.93 µM (inactive)
GI50 (T47D): 2.93 µM (inactive)

COc1ccc(N2C(=O)C3c4[nH]c5ccc(OC)cc5c4C4CCC(c5ccccc5)CC4C3C2=O)cc1 (configuration not stated)
GI50 (BT-549): 19.6 µM (inactive)
GI50 (T47D): 20.1 µM (inactive)

CC(C)C(OC(=O)c1cc(NC(=S)c2ccccc2)ccc1Cl)C(C)C
GI50 (BT-549): 20.8 µM (inactive)
GI50 (T47D): 7.85 µM (inactive)

Cc1cccc(-c2nc(-c3cnccn3)n(Cc3ccccc3)n2)c1
GI50 (BT-549): > 100 µM (inactive)
GI50 (T47D): 90.6 µM (inactive)

CN(C)/C=C(\C(=O)c1ccccc1)n1nc(-c2ccccc2)cc1-c1ccccc1
GI50 (BT-549): > 10 µM (inactive)
GI50 (T47D): > 10 µM (inactive)

CC(=O)Oc1ccc(-c2cc3ccccc3oc2=O)cc1
GI50 (BT-549): > 100 µM (inactive)
GI50 (T47D): 52.8 µM (inactive)

O=C1Nc2ccccc2/C1=N/NC(=O)C(O)(c1ccccc1)c1ccccc1
GI50 (BT-549): 14.1 µM (inactive)
GI50 (T47D): 23.8 µM (inactive)

Cc1c2ccccc2c(C)n2c1nc1cc3ccccc3cc12
GI50 (BT-549): 1.84 µM (inactive)
GI50 (T47D): 6.44 µM (inactive)

CCCC(=O)n1[nH]c(=O)n(-c2ccc(Cl)cc2)c1=O
GI50 (BT-549): > 100 µM (inactive)
GI50 (T47D): > 100 µM (inactive)

COc1ccc2c(c1)-c1nc(=S)n(CCN(C)C)c3ccc([N+](=O)[O-])c(c13)N2
GI50 (BT-549): 10.3 µM (inactive)
GI50 (T47D): 4.81 µM (inactive)

C[N+]1(CCCl)CC[N+](C)(CCCl)CC1 (configuration not stated)
GI50 (BT-549): > 100 µM (inactive)
GI50 (T47D): > 100 µM (inactive)

CC(C)(C(=O)N(C(=O)N1CCN(c2ccccc2)CC1)S(=O)(=O)c1ccccc1)c1ccc(Cl)cc1
GI50 (BT-549): 30.7 µM (inactive)
GI50 (T47D): 29.2 µM (inactive)

Cc1nc2cc([N+](=O)[O-])ccc2c(NCCCN(C)C)c1C
GI50 (BT-549): 11.8 µM (inactive)
GI50 (T47D): 4.09 µM (inactive)

CC(=O)OC1CC(O)CC2=CCC3C4CCC(C(C)(O)C(O)CC5COC(=O)C5C)C4(C)CCC3C21C (configuration not stated)
GI50 (BT-549): > 25 µM (inactive)
GI50 (T47D): > 25 µM (inactive)

c1ccc(NN=C(c2ccccn2)c2ccccn2)nc1
GI50 (BT-549): 6.18 µM (inactive)

CSCCC(NC(=O)Cc1ccc(C(=O)c2ccccc2)cc1)C(=O)O (configuration not stated)
GI50 (BT-549): > 100 µM (inactive)
GI50 (T47D): > 100 µM (inactive)

O=C(Nc1noc(-c2ccccc2)n1)c1ccccc1CNc1noc(-c2ccccc2)n1
GI50 (BT-549): > 100 µM (inactive)
GI50 (T47D): > 100 µM (inactive)

O=C1C(Cl)=C(NCCN2CCOCC2)C(=O)c2c(O)ccc(O)c21
GI50 (BT-549): 2.24 µM (inactive)
GI50 (T47D): 1.99 µM (inactive)

c1ccc(-c2nnn3c2NC2=C(CCCC2)C3c2ccccc2)cc1 (configuration not stated)
GI50 (T47D): 22.5 µM (inactive)

COC(=O)C1=C(OC(=O)c2ccccc2)C(C(=O)OC)[C@]2(O)[C@@H](C(=O)OC)[C@H]1C[C@@H](c1ccccc1)[C@@H]2C(=O)OC (some centres not stated)
GI50 (BT-549): 12.2 µM (inactive)
GI50 (T47D): 6.52 µM (inactive)

O=C1c2ccccc2S(=O)(=O)c2cc(-c3nn[nH]n3)ccc21 [DOXANTRAZOLE]
GI50 (BT-549): > 100 µM (inactive)
GI50 (T47D): > 76.4 µM (inactive)

Cc1ncc([N+](=O)[O-])n1CCNS(=O)(=O)CCCn1ncnc1[N+](=O)[O-]
GI50 (BT-549): > 100 µM (inactive)
GI50 (T47D): > 100 µM (inactive)
